# Test results taken from US20150111852A1, “1-Di(sec-butyl)-phosphinoyl-pentane (dapa-2-5) as a topical agent” (priority 2013, published 2015).
# Tests used:
# [1] = biological target: T1, cloned hTRPM8 channel (encoded by the human TRPM8 gene, expressed in CHO cells) (Homo sapiens, UniProt Q7Z2W7); assay: TRPM8 agonist FLIPR Fluo-8 calcium assay; assay type: cell-based; details: for TRPM8 Relative Potency: DAPA-1-7 = 1
# T1 construct: host or cells: CHO cells, stably transfected
# Experimental: The in vitro effects of test compounds were evaluated on cloned hTRPM8 channel (encoded by the human TRPM8 gene, expressed in CHO cells) using a Fluo-8 calcium kit and a Fluorescence Imaging Plate Reader (FLIPR^TETRA™) instrument.
# Test compounds and positive control solutions were prepared by diluting stock solutions in a HEPES-buffered physiological saline (HBPS) solution. The test compound and control formulations were loaded in polypropylene or glass-lined 384-well plates, and placed into the FLIPR instrument (Molecular Devices Corporation, Union City, Calif., USA). The test compounds were evaluated at 4 or 8 concentrations with n=4 replicates per determination. […] The test cells were Chinese Hamster Ovary (CHO) cells stably transfected with human TRPM8 cDNAs.
# For the FLIPR^TETRA™ assay, cells were plated in 384-well black wall, flat clear-bottom microtiter plates (Type: BD Biocoat Poly-D-Lysine Multiwell Cell Culture Plate) at approximately 30,000 cells per well. Cells were incubated at 37° C. overnight to reach a near confluent monolayer appropriate for use in a fluorescence assay. The test procedure was to remove the growth media and to add 40 μL of HBPS containing Fluo-8 for 30 min at 37° C. 10 μL of test compound, vehicle, or control solutions in HBPS were added to each well and read for 4 min.
# Concentration-response data were analyzed via the FLIPR Control software that is supplied with the FLIPR System (MDS-AT) and fitted to a Hill equation of the following form: […]
# where: “Base” is the response at low concentrations of test compound; “Max” is the maximum response at high concentrations; “xhalf” is the EC50, the concentration of test compound producing half-maximal activation; and “rate” is the Hill coefficient. Nonlinear least squares fits were made assuming a simple one-to-one binding model.
# mouth and throat = assay: Sensory activity of ODT-C on volunteers (double-blind, modified ASHRAE scale); assay type: in vivo, human; details: for ODT-C test results (sensation and taste in words) / duration of cooling effect: 1.2 to 1.5 mg per ODT; for ODT-C test results (sensation and taste in words): 4 volunteers; for quality of heat abstraction sensation (peak intensity) / duration of cooling effect: ODT-C; for ASHRAE equivalent: peak heat abstraction sensation, modified ASHRAE scale neutral [0] to icy cold [-4]
# Experimental: ODT-C. More experiments were conducted to find a smaller tablet, in the range of 40 to 60 mg, with a disintegration of <10 sec. These paraemters might achieve a better pharmacological effect. ODT-B was 100 mg in size and disintegrated in <20 sec. […] For example, to 1.5 g of DAPA-2-5 is added 1.5 g of absolute ethanol, followed by 2.0 g of Neusilin US2. The mixture is shaken or mixed in a Speedmixer at 500 rpm for 1 min. The sample is placed under a heat source and about 2 hr later, the sample size is re-weighed with the expectation that the ethanol has been evaporated and the sample now weights 3.5 g. This powder is free-flowing. • b. a sample of maltitol powder is prepared (Maltisorb® P200 from Roquette). • c. a sample of Prosolv® EasyTab is prepared (JRS Pharma, Rosenburg, Germany). • d. a blend of a. [2.80 g], b. [15.73 g] and c. [31.46 g] is prepared to make 1000 ODT tablets, each weighing 50 mg and containing 1.2 mg of DAPA-2-5. • e. the blend is first shaken by hand, then placed for 2 min in a SpeedMixer at 500 rpm. The blend is poured into the funnel of a New Single Punch Tablet Press Pill Making Machine Maker TDP-1-5 [available from Amazon.com] and the extruded tablets are collected.
# ODT-C, described in Study 2, were tested for sensory properties on 4 volunteers, with at least 3 trials per compound and at 1.2 to 1.5 mg per ODT. The ODT was placed on the mid-line posterior dorsal surface of the tongue and sensory effects recorded for 30 min on a standardized form […]. The ODT were coded and administered on a double-blind basis. A modified ASHRAE scale of neutral, slightly cool [-1], cool [-2], cold [-3], and icy cold [-4] was used to rank the peak heat abstraction sensations in the mouth and throat. Other perceived effects, e.g. taste and duration, were also noted.
# oropharynx = assay: Chili-pepper sauce irritation test; assay type: in vivo, human; design: key: If there was no suppression of the irritant/tickling sensations of the sauce, the value was “0”; if there was some suppression, the value was “+”; if there was complete suppression, then the value was “++.”; details: ODT, sauce applied 30 min later; 6 to 8 trials per compound
# Description: The “pain” component of inflammation includes irritation, itch, and discomfort and suppression of these endpoints is termed “anti-nociceptive”. To determine if a compound has anti-nociceptive activity, the Inventor has devised a modified capsaicin challenge method to evoke discomfort in the oropharyngx: the chili-pepper sauce irritation test. Chili-pepper sauce placed onto the posterior dorsal surface of the tongue evokes a tickling/irritant sensations in the oropharynx. The sensations associated with the chili pepper sauce are located in the back of the mouth and are clearly recognized and associated with irritation and a desire to clear the throat. In the chili-pepper sauce irritation test, the test compound is delivered using an ODT, as in Study 3, and 30 min later 0.2 to 0.25 mL of the sauce was applied onto the posterior dorsal surface of the tongue (with a syringe or a plastic stick). The chili pepper sauce used here is called Yank Sing® Chili Pepper Sauce (YS Gourmet Productions, Inc., PO Box 26189, San Francisco, Calif. 94126) and is a well-known condiment for use with dim sum (Chinese tea lunch). If there was no suppression of the irritant/tickling sensations of the sauce, the value was “0”; if there was some suppression, the value was “+”; and if there was complete suppression, then the value was “++.” For compounds that gave a ++ score, the irritative signals of the chili-pepper sauce are completely absent, yet the salty taste from the soy sauce of the condiment can still be readily tasted. A “++” result indicated suppression of the irritant effects of chili-pepper sauce. Numerical results are from 6 to 8 trials per compound.
# [2] = tested on: oral cavity and pharyngeal surfaces; assay: Sensory activity of ODT-A on volunteers; assay type: in vivo, human; details: 6 to 8 trials per compound
# Experimental: ODT-A was prepared by dissolving the DAPA compound in absolute ethanol, adding a 80% mannitol-20% maltitol mixture of equal weight and then adding an equal volume of distilled water. The mixture was the stirred with a glass rod, and dispensed onto a piece of wax or parchment paper with a disposable plastic pipette. The viscous liquid drop formed was then dried under a heat source for at least 4 hr. The nominal dose of the API in ODT-A ranged from 1 to 3 mg/tablet. The dried tablets weighed on average 150 mg each and when on the dorsal surface of the tongue, rapidly dissolved completely in saliva and coated the oropharyngeal surface. These tablets were suitable for initial pilot studies, but were not uniform in size, were friable, especially in conditions of high ambient humidity, and were not readily amenable to further analytical evaluation.
# Sensory Qualities of ODT on the Oral Cavity and Pharyngeal Surfaces The DAPA ODT of Study 2 were evaluated for sensory properties on volunteers. The ODT-A results [see table] are from 6 to 8 trials per compound in several experienced individuals familiar with sensory properties of “cooling agents”. The results of ODT-A will be discussed together with ODT-B and ODT-C.
# T1 sequence (Q7Z2W7 whole entry): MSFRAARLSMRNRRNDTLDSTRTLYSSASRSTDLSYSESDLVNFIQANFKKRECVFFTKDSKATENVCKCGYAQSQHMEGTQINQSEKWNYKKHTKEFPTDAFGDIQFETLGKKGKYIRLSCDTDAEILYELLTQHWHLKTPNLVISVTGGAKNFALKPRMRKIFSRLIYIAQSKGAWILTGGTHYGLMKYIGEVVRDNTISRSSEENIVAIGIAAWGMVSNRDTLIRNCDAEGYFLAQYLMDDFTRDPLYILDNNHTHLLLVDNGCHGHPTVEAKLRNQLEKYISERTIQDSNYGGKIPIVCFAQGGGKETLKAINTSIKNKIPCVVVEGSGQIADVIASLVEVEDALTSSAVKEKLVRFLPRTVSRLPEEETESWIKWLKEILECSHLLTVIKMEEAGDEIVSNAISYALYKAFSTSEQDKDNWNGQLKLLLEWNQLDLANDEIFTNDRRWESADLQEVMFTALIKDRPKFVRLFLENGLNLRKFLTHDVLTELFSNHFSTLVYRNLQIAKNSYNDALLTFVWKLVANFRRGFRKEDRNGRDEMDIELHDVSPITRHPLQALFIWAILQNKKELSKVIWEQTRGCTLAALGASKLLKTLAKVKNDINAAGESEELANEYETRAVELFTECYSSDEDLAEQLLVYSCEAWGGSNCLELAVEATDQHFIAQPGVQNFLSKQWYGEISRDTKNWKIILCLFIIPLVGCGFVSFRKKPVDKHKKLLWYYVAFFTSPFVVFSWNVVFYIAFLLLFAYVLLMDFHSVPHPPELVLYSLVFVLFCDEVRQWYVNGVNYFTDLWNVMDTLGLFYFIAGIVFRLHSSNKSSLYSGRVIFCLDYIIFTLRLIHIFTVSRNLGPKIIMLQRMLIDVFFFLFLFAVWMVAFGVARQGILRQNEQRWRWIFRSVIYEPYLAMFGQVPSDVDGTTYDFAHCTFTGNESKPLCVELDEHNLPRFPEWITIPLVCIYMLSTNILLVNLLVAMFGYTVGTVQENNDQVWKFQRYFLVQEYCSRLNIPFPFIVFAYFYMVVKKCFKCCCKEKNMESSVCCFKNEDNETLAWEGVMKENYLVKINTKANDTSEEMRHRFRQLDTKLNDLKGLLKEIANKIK
SMILES,Relative Potency to L-menthol [1],TRPM8 Relative Potency [1],ODT-C test results (sensation and taste in words) (mouth and throat),quality of heat abstraction sensation (peak intensity) (mouth and throat),duration of cooling effect (mouth and throat),ASHRAE equivalent (mouth and throat),Chili test (oropharynx),Duration [2],Onset [2],Sensory Quality [2],rank in TRPM8 potency among the 21 compounds tested [1]
"CCCCCCCP(=O)(C(C)C)C(C)C [DAPA-1-7, 1-Di(isopropyl)-phosphinoyl-heptane]",5.4,1,"intense sensation of icy cold, but has unpleasant",cold and icy cold which was painful to the back of the throat,"taste on the tongue: test dose of 1 to 2 mg, >15 min.",−3.5,++,16 min,0.6 min,cool/cold,
"CCCCCCP(=O)(C(C)C)C(C)C [DAPA-1-6, 1-Di(isopropyl)-phosphinoyl-hexane]",1.6,,"intense sensation of icy cold, but has unpleasant",cold and icy cold which was painful to the back of the throat,lasting >10 min,−3.5,++,16 min,0.6 min,cool/cold,
"CCCCCCCCP(=O)(C(C)CC)C(C)CC (stereo not shown) [DAPA-2-8, 1-Di(sec-butyl) phosphinoyl-octane]",2.9,0.71,strong unpleasant taste,,,−2.7,+,27 min,1.2 min,cool,
"CCCCCP(=O)(C(C)CC)C(C)CC (stereo not shown) [DAPA-2-5, 1-Di(sec-butyl)-phosphinoyl-pentane]",2.2,0.41,pleasant dynamic cool,refreshing coolness and cold,12 to 15 min,−2.7,++,12 min,0.1 min,dynamic cool,12
"CCCCCCCP(=O)(C(C)CC)C(C)CC (stereo not shown) [DAPA-2-7, 1-Di(sec-butyl) phosphinoyl-heptane]",3.4,0.64,"intense sensation of icy cold, but has unpleasant",cold and icy cold which was painful to the back of the throat,"taste on the tongue, long-lasting >15 min",−3.5,++,21 min,0.7 min,cool/cold,
"CCCCCCP(=O)(C(C)CC)C(C)CC (stereo not shown) [DAPA-2-6, 1-Di(sec-butyl) phosphinoyl-hexane]",4.7,0.87,"intense sensation of icy cold, but has unpleasant",cold and icy cold which was painful to the back of the throat,"taste on the tongue, long-lasting >15 min",−3.2,++,18 min,0.7 min,cool/cold,
